Entries after “also recorded” stand apart in the source; their conditions may differ.
Columns and labels:
Acute toxicity = format: in vivo; conditions: no species, dose or route stated
[1] = Solubility (physico-chemical properties); format: physicochemical; conditions: qualitative, by solvent
[2] = system: partially purified rat brain PLC; assay: Inhibitory activity against PLC (hydrolysis of radiolabelled PI); format: biochemical; conditions: 250 µM PI substrate, 2 mM CaCl₂, Tris-acetate buffer pH 5.5, 20 min at 30 °C; read-out: IC₅₀
Experimental: Inhibitory activity of hispidospermidin against PLC was measured. The assay mixture (0.1 ml) contained 200 mM Tris-acetate buffer (pH 5.5), 2 mM CaCl₂, 250 µM PI (suspended in the buffer, specific activity: 800 dpm/nmole) and enzyme. In the standard assay, 20 µl of inhibitor in 15 mM Tis-HCl buffer (pH 7.5) was added to the substrate suspension (50 µl). The reaction was started with addition of the enzyme solution prepared from partially purified rat brain PLC (30 µl, ca. 5 µg protein) and incubated for 20 min. at 30 °C. The reaction was terminated by adding 0.3 ml of unlabeled PI (200 µM) solution containing 1 mg/ml of bovine serum albumin and 1 mM EGTA, followed by adding of 0.3 ml of 7.5% ice cold trichloroacetic acid containing 3 mM CaCl₂. Under the conditions, the enzyme hydrolyzed about 30 % of substrate in the assay mixture. As a positive control showing 100% inhibition of PLC, 20 µl of 25 mM EDTA was added to the assay mixture. The incubation mixture was kept on ice for 10 min asn centrifuged at 1,700 x g for 10 min. The radioactivity of an aliquot (0.2 ml) of the supernatant was measured by liquid scintillation counter (ALOKA).

Structure (SMILES)	Acute toxicity (Acute toxicity)	Solubility [1]	IC50 [2]
C[C@@H]1CC[C@H]2[C@]13CC[C@@]1(C)O[C@]2(C)[C@@H](NCCCCN(C)CCCN(C)C)[C@H]1C3 [Hispidospermidin, hispidospermidin]	not observed	Soluble in MeOH, CHCl₃, acetone, acidic water; also recorded: Insoluble in water	15.7 µM
CCN(CC)CCCC(C)Nc1c2ccc(Cl)cc2nc2ccc(OC)cc12 (stereo not shown) [Quinacrine]	–	–	314 µM
NCCCNCCCCNCCCN [Sperimine]	–	–	59.3 µM
NC[C@H]1O[C@H](O[C@H]2[C@H](O)[C@@H](O[C@H]3O[C@H](CO)[C@@H](O)[C@H](N)[C@H]3O)[C@H](N)C[C@@H]2N)[C@H](N)C[C@@H]1O [Tobramycin]	–	–	29.9 µM
CN1CCN(CCCN2c3ccccc3Sc3ccc(C(F)(F)F)cc32)CC1 [Trifluoperazine]	–	–	150 µM

Source: patent publication EP0600342A1, “Hispidospermidin and pharmaceutical compositions” (F. HOFFMANN-LA ROCHE AG, priority 1992, dated 1994)
